From patent US8652522B2, “Pharmaceutical composition of an iontophoresis” (Teikoku Seiyaku Co., Ltd., priority 2009, dated 2014)
Read-outs that look alike come from different tables or passages of the source. Blank lines part the entries; values can stand above or below the compound they belong to.

Tests used:
[1] = blood plasma
Description: (§1) Moreover, the condition of the transdermally administration in association with the treatment of applying current is as follows.
(§2) This was funneled into a patch comprising an electrode and an adhesion layer, and cooled down at −80° C. to obtain a desired drug product.
Two NZ family male rabbits to be devoted to the test was bought from […] LABES Co., Ltd., (Charles River Japan, Inc.). […] The observation of the animal during the preliminary breeding and the test, as to a hair coat, a skin and a excretory substance was carried out every day.
The administration route: the transdermally administration in association with the treatment of applying current
The radioactivity density assay in the blood plasma was carried out as follows.
A sample for assay was treated by adding the solubilizing agent, and the measurement of the sample was carried out by using the liquid scintillation counter (LSC-1000, ALOKA). The limit of determinate quantity was two folds of the background, and the lesser value of the limit was determined as ND. The radioactivity density assay in the blood plasma was calculated from the measured value.
The radioactivity density is used as indication pointer, the calibrated concentration of the chemical drug converted with unaltered substance was calculated by the following formula. The calibrated concentration of the chemical drug (μg eq./mL)=The radioactivity density in the sample (dpm/mL)/{the amount of the administration radioactivity (dpm)/the amount of the administration chemical drug (μg)}

[2] = Description: as §1, §2
After that, an embedded freezing block was directed to the cutter of the microtome stage for mounting (CRYOMACROCUT, Leica), and a femoral region thereof was directed to the front, and a neck region was directed to the backside, and was fixed with being in close contact with the backside of the leg to the stage for mounting. When the stage for mounting of microtome was slid, the cutter was contacted perpendicular with the narrow side of the rectangular, the upper surface of this was chipped off as a sliced segment, the sliced segment was in close contact to the adhesive tape, and removed. This operation was repeated a couple dozens times, it was cleaved from the front portion of the knee to the backside portion, a segment of the administration and current-carrying part was (1) to (7) (from the front to the backside) in order of precedence.

Remark: listed apart in the source

average of drug conversion ([1]; 30 min. administration individual, 10 minutes): 0.01 μg eq./mL
average of drug conversion ([1]; 30 min. administration individual, 20 minutes): 0.03 μg eq./mL
average of drug conversion ([1]; 30 min. administration individual, 30 minutes): 0.09 μg eq./mL
average of drug conversion ([1]; 120 min. administration individual, 10 minutes): 0.04 μg eq./mL
average of drug conversion ([1]; 120 min. administration individual, 20 minutes): 0.09 μg eq./mL
average of drug conversion ([1]; 120 min. administration individual, 30 minutes): 0.23 μg eq./mL
average of drug conversion ([1]; 120 min. administration individual, 60 minutes): 0.66 μg eq./mL
average of drug conversion ([1]; 120 min. administration individual, 90 minutes): 0.91 μg eq./mL
average of drug conversion ([1]; 120 min. administration individual, 120 minutes): 1.17 μg eq./mL
blackened image according to 3H, cingulum of the perimysial tissue (perimysium) ([2]; existing up to the reticular dermis located in the inner side of the epidermal tissue): high density
blackened image according to 3H at a fibrous encapsulation and a synovium membrane ([2]; synovial joint, administration time 120 minutes and 30 minutes): very slight amount
Compound: CC1CC2C3CCC4=CC(=O)C=CC4(C)C3(F)C(O)CC2(C)C1(O)C(=O)COP(=O)([O-])[O-].[Na+].[Na+] (stereo not drawn) [[^3H] Betamethasone-21-phosphate disodium salt]

pair theoritical value % Mean (N2-W (nitrogen-bubbled purified water), 4° C. 1 month): 107.68%
pair theoritical value % Mean (N2-W (nitrogen-bubbled purified water), 4° C. 2 weeks): 99.20%
pair theoritical value % Mean (N2-W (nitrogen-bubbled purified water), 4° C. 4 month): 100.06%
pair theoritical value % Mean (N2-W (nitrogen-bubbled purified water), 4° C. 6 month): 98.27%
pair theoritical value % Mean (N2-W (nitrogen-bubbled purified water), 40° C. 1 month): 85.82%
pair theoritical value % Mean (N2-W (nitrogen-bubbled purified water), 40° C. 4 month): 100.30%
pair theoritical value % Mean (N2-W (nitrogen-bubbled purified water), 50° C. 1 month): 89.72%
pair theoritical value % Mean (N2-W (nitrogen-bubbled purified water), 50° C. 4 month): 77.62%
pair theoritical value % Mean (N2-W (nitrogen-bubbled purified water), 60° C. 1 month): 38.91%
pair theoritical value % Mean (N2-W (nitrogen-bubbled purified water), 60° C. 2 weeks): 91.76%
pair theoritical value % Mean (N2-W (nitrogen-bubbled purified water), 60° C. 4 month): 41.97%
pair theoritical value % Mean (W (purified water), 4° C. 1 month): 101.42%
pair theoritical value % Mean (W (purified water), 4° C. 2 weeks): 101.05%
pair theoritical value % Mean (W (purified water), 4° C. 4 month): 110.24%
pair theoritical value % Mean (W (purified water), 4° C. 6 month): 98.01%
pair theoritical value % Mean (W (purified water), 40° C. 1 month): 96.79%
pair theoritical value % Mean (W (purified water), 40° C. 4 month): 100.99%
pair theoritical value % Mean (W (purified water), 50° C. 1 month): 78.74%
pair theoritical value % Mean (W (purified water), 50° C. 4 month): 70.87%
pair theoritical value % Mean (W (purified water), 60° C. 1 month): 33.60%
pair theoritical value % Mean (W (purified water), 60° C. 2 weeks): 85.69%
pair theoritical value % Mean (W (purified water), 60° C. 4 month): 17.67%
pair theoritical value % Mean (pH 2, 4° C. 1 month): 81.61%
pair theoritical value % Mean (pH 2, 4° C. 2 weeks): 75.50%
pair theoritical value % Mean (pH 2, 4° C. 4 month): 121.42%
pair theoritical value % Mean (pH 2, 40° C. 1 month): 62.65%
pair theoritical value % Mean (pH 2, 40° C. 4 month): 57.15%
pair theoritical value % Mean (pH 2, 40° C. 6 month): 33.20%
pair theoritical value % Mean (pH 2, 50° C. 1 month): 55.83%
pair theoritical value % Mean (pH 2, 50° C. 4 month): 22.44%
pair theoritical value % Mean (pH 2, 60° C. 1 month): 14.90%
pair theoritical value % Mean (pH 2, 60° C. 2 weeks): 42.03%
pair theoritical value % Mean (pH 2, 60° C. 4 month): 2.79%
pair theoritical value % Mean (pH 3, 4° C. 1 month): 82.46%
pair theoritical value % Mean (pH 3, 4° C. 2 weeks): 85.23%
pair theoritical value % Mean (pH 3, 4° C. 4 month): 104.26%
pair theoritical value % Mean (pH 3, 40° C. 1 month): 82.48%
pair theoritical value % Mean (pH 3, 40° C. 4 month): 73.33%
pair theoritical value % Mean (pH 3, 40° C. 6 month): 50.00%
pair theoritical value % Mean (pH 3, 50° C. 1 month): 64.66%
pair theoritical value % Mean (pH 3, 50° C. 4 month): 32.84%
pair theoritical value % Mean (pH 3, 60° C. 1 month): 17.55%
pair theoritical value % Mean (pH 3, 60° C. 2 weeks): 50.37%
pair theoritical value % Mean (pH 3, 60° C. 4 month): 3.46%
pair theoritical value % Mean (pH 4, 4° C. 1 month): 95.85%
pair theoritical value % Mean (pH 4, 4° C. 2 weeks): 89.42%
pair theoritical value % Mean (pH 4, 4° C. 4 month): 108.15%
pair theoritical value % Mean (pH 4, 4° C. 6 month): 81.32%
pair theoritical value % Mean (pH 4, 40° C. 1 month): 81.36%
pair theoritical value % Mean (pH 4, 40° C. 4 month): 77.80%
pair theoritical value % Mean (pH 4, 40° C. 6 month): 53.22%
pair theoritical value % Mean (pH 4, 50° C. 1 month): 63.08%
pair theoritical value % Mean (pH 4, 50° C. 4 month): 31.80%
pair theoritical value % Mean (pH 4, 60° C. 1 month): 19.17%
pair theoritical value % Mean (pH 4, 60° C. 2 weeks): 52.38%
pair theoritical value % Mean (pH 4, 60° C. 4 month): 3.38%
pair theoritical value % Mean (pH 5, 4° C. 1 month): 93.36%
pair theoritical value % Mean (pH 5, 4° C. 2 weeks): 94.34%
pair theoritical value % Mean (pH 5, 4° C. 4 month): 109.24%
pair theoritical value % Mean (pH 5, 4° C. 6 month): 90.85%
pair theoritical value % Mean (pH 5, 40° C. 1 month): 78.88%
pair theoritical value % Mean (pH 5, 40° C. 4 month): 82.09%
pair theoritical value % Mean (pH 5, 50° C. 1 month): 75.05%
pair theoritical value % Mean (pH 5, 50° C. 4 month): 32.88%
pair theoritical value % Mean (pH 5, 60° C. 1 month): 17.09%
pair theoritical value % Mean (pH 5, 60° C. 2 weeks): 56.51%
pair theoritical value % Mean (pH 5, 60° C. 4 month): 3.34%
pair theoritical value % Mean (pH 6, 4° C. 1 month): 104.98%
pair theoritical value % Mean (pH 6, 4° C. 2 weeks): 98.90%
pair theoritical value % Mean (pH 6, 4° C. 4 month): 107.46%
pair theoritical value % Mean (pH 6, 4° C. 6 month): 97.60%
pair theoritical value % Mean (pH 6, 40° C. 1 month): 86.51%
pair theoritical value % Mean (pH 6, 40° C. 4 month): 89.24%
pair theoritical value % Mean (pH 6, 50° C. 1 month): 75.38%
pair theoritical value % Mean (pH 6, 50° C. 4 month): 41.48%
pair theoritical value % Mean (pH 6, 60° C. 1 month): 25.28%
pair theoritical value % Mean (pH 6, 60° C. 2 weeks): 69.99%
pair theoritical value % Mean (pH 6, 60° C. 4 month): 5.85%
pair theoritical value % Mean (pH 7, 4° C. 1 month): 110.30%
pair theoritical value % Mean (pH 7, 4° C. 2 weeks): 100.23%
pair theoritical value % Mean (pH 7, 4° C. 4 month): 105.27%
pair theoritical value % Mean (pH 7, 4° C. 6 month): 101.38%
pair theoritical value % Mean (pH 7, 40° C. 1 month): 89.32%
pair theoritical value % Mean (pH 7, 40° C. 4 month): 102.71%
pair theoritical value % Mean (pH 7, 50° C. 1 month): 86.96%
pair theoritical value % Mean (pH 7, 50° C. 4 month): 66.49%
pair theoritical value % Mean (pH 7, 60° C. 1 month): 36.13%
pair theoritical value % Mean (pH 7, 60° C. 2 weeks): 87.22%
pair theoritical value % Mean (pH 7, 60° C. 4 month): 25.71%
pair theoritical value % Mean (pH 8, 4° C. 1 month): 97.51%
pair theoritical value % Mean (pH 8, 4° C. 2 weeks): 104.91%
pair theoritical value % Mean (pH 8, 4° C. 4 month): 108.32%
pair theoritical value % Mean (pH 8, 4° C. 6 month): 103.29%
pair theoritical value % Mean (pH 8, 40° C. 1 month): 90.10%
pair theoritical value % Mean (pH 8, 40° C. 4 month): 106.12%
pair theoritical value % Mean (pH 8, 50° C. 1 month): 103.57%
pair theoritical value % Mean (pH 8, 50° C. 4 month): 83.79%
pair theoritical value % Mean (pH 8, 60° C. 1 month): 45.01%
pair theoritical value % Mean (pH 8, 60° C. 2 weeks): 95.80%
pair theoritical value % Mean (pH 8, 60° C. 4 month): 61.99%
Compound: C[C@H]1C[C@H]2[C@@H]3CCC4=CC(=O)C=C[C@]4(C)[C@@]3(F)[C@@H](O)C[C@]2(C)[C@@]1(O)C(=O)COP(=O)([O-])[O-].[Na+].[Na+] [betamethasone sodium phosphate]
